Measurements as given in publication PMC11269945, “HTRF-based assay for detection of mono-ADP-ribosyl hydrolyzing macrodomains and inhibitor screening” (iScience, 2024).
Where a name gives a salt, the structure may show the parent alone. Read-outs that look alike come from different tables or passages of the source.

B1: HCoV-229e: recombinant HCoV-229E macrodomain, Uniprot P0C6X1 res. E1270-1437 (protein, UniProt P0C6X1 1270-1437, looked up, fragment)
chain: EKLNAFLVHDNVAFYQGDVDTVVNGVDFDFIVNAANENLAHGGGLAKALDVYTKGKLQRLSKEHIGLAGKVKVGTGVMVECDSLRIFNVVGPRKGKHERDLLIKAYNTINNEQGTPLTPILSCGIFGIKLETSLEVLLDVCNTKEVKVFVYTDTEVCKVKDFVSGLVN
modifications: Non-structural protein 3 macrodomain
B2: TARG1: recombinant human TARG1, Uniprot Q9Y530 res. S3-152 (protein, UniProt Q9Y530 3-152, looked up, fragment)
chain: SSLNEDPEGSRITYVKGDLFACPKTDSLAHCISEDCRMGAGIAVLFKKKFGGVQELLNQQKKSGEVAVLKRDGRYIYYLITKKRASHKPTYENLQKSLEAMKSHCLKNGVTDLSMPRIGCGLDRLQWENVSAMIEEVFEATDIKITVYTL
B3: MacroD1: recombinant human MacroD1, Uniprot Q9BQ69 res. 90-325 (protein, UniProt Q9BQ69 90-325, looked up, fragment)
chain: STSTDWKEAKSFLKGLSDKQREEHYFCKDFVRLKKIPTWKEMAKGVAVKVEEPRYKKDKQLNEKISLLRSDITKLEVDAIVNAANSSLLGGGGVDGCIHRAAGPLLTDECRTLQSCKTGKAKITGGYRLPAKYVIHTVGPIAYGEPSASQAAELRSCYLSSLDLLLEHRLRSVAFPCISTGVFGYPCEAAAEIVLATLREWLEQHKDKVDRLIICVFLEKDEDIYRSRLPHYFPVA
B4: MacroD2: recombinant human MacroD2, Uniprot A1Z1Q3 res. 4-243 (protein, UniProt A1Z1Q3 4-243, looked up, fragment)
chain: SNKKKKVWREEKERLLKMTLEERRKEYLRDYIPLNSILSWKEEMKGKGQNDEENTQETSQVKKSLTEKVSLYRGDITLLEVDAIVNAANASLLGGGGVDGCIHRAAGPCLLAECRNLNGCDTGHAKITCGYDLPAKYVIHTVGPIARGHINGSHKEDLANCYKSSLKLVKENNIRSVAFPCISTGIYGFPNEPAAVIALNTIKEWLAKNHHEVDRIIFCVFLEVDFKIYKKKMNEFFSVD

Columns and labels:
[1] = target: T1, TARG1 (Homo sapiens, UniProt Q9Y530); assay type: biochemical; conditions: read-out: IC50 TARG1
T1 construct: "Uniprot: Q9Y530" res; His10 with TEV site (N, cleaved yes); made in house; host or cells: E. coli T7-express
T1 sequence (Q9Y530 3-152): B2 chain

[2] = target: T2, SARS-CoV-2 Mac1 (Severe acute respiratory syndrome coronavirus 2, UniProt P0DTD1); assay: biochemical
[3] = target: T3, MacroD2 (Homo sapiens, UniProt A1Z1Q3); assay type: biochemical; conditions: read-out: IC50 MacroD2
T3 sequence (A1Z1Q3 4-243): B4 chain

[4] = target: T4, MacroD1 (Homo sapiens, UniProt Q9BQ69); assay: biochemical
T4 sequence (Q9BQ69 90-325): B3 chain

[5] = target: T5, PARP14 Mac2/3 (Homo sapiens, UniProt Q460N5); assay: biochemical; assay type: binding
T5 sequence (Q460N5 994-1393): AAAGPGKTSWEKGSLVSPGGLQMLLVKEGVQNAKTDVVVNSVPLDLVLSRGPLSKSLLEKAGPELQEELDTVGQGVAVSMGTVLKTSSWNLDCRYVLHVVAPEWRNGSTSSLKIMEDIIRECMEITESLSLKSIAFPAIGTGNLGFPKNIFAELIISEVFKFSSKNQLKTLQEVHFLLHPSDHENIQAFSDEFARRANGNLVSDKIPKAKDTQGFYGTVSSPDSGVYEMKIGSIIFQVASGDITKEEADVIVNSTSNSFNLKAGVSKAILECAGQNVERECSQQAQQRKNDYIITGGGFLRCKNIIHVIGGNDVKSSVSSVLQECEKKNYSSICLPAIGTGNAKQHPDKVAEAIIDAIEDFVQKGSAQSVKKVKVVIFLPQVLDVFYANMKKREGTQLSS

[6] = target: T2, SARS-CoV-2 Mac1; assay type: biochemical
[7] = target: T4, MacroD1; set-up: method as in PMID 18983849; conditions: read-out: Kd for free ADPr, MacroD1; cited from earlier work
[8] = target: HCoV-229e macrodomain (Human coronavirus 229E, UniProt P0C6X1); assay: DeMAR HTRF deMARylation assay, wash protocol; assay type: biochemical
[9] = target: CHIKV macrodomain (Chikungunya virus, UniProt Q8JUX6, C1333S); assay type: biochemical, Chikungunya (CHIKV) alphavirus
[10] = system: MARylated Tb-PARP10cat; assay type: biochemical, human
[11] = system: MARylated Tb-PARP10cat; assay type: biochemical, human; remark: listed apart in the source
[12] = read-out: IC50 HCoV-229e, wash setup, 2 h, 80 nM macrodomain, 6 nM immobilized Tb-PARP10cat

Molecule	readout quenching in one-pot setup (PARP14 Mac2/3 off-target), in words [5]	IC50 [8, 12] [µM]	EC80 One-pot (1 h) [10]	EC80 Wash (2 h) [11]	other results
O=C(Nc1ccccc1)Nc1ccc(C(=O)NC2c3cccc(O)c3CC2C(=O)O)cc1 (centres unmarked) [Z8539_0023]	pronounced readout quenching				IC50 [1]: > 667 µM; IC50 [2]: 6 µM; IC50 [3]: > 667 µM; IC50 ([4]; read-out: IC50 MacroD1): > 667 µM
Oc1c(Cl)cc(Cl)c(Cl)c1Cc1c(O)c(Cl)cc(Cl)c1Cl [hexachlorophene]					inhibition of SARS-CoV-2 Mac1 in words [6]: limited efficacy
Nc1ncnc2c1ncn2C1OC(COP(=O)(O)OP(=O)(O)OCC2OC(O)C(O)C2O)C(O)C1O (centres unmarked) [ADPr, Adenosine 5′-diphosphoribose sodium salt]					Kd [7]: 0.9 µM; IC50 [4]: 2 µM; IC50 [8]: ~460 µM; IC50 [5]: 67 µM
O=C(Nc1ccc(C(=O)NC2c3cccc(O)c3CC2C(=O)O)cc1)NC1CC1 (centres unmarked) [Z8539]	does not show a strong quenching effect	> 667			
N#C[C@@]1(c2ccc3c(N)ncnn23)O[C@H](CO)[C@@H](O)[C@H]1O [GS-441524]	clear and concentration-dependent loss of signal	> 667			IC50 CHIKV [9]: slight activity; inhibition of SARS-CoV-2 Mac1 in words [6]: slightly inhibits
O=C(Nc1ccc(C(=O)NC2c3cccc(O)c3CC2C(=O)O)c(O)c1)NC1CC1 (centres unmarked) [Z8539_0072]		> 667			IC50 [2]: 14 µM
B1			0.036 µM	0.015 µM	
B2			∼2256 nM	∼ 830 nM	
B3			0.004 µM	0.003 µM	
B4			0.003 µM	0.002 µM	
